Assay [1] addresses T1, Human Arginase 1 (Homo sapiens, UniProt P05089).
T1 construct: made in house; host or cells: E. coli
T1 sequence (P05089 1-322): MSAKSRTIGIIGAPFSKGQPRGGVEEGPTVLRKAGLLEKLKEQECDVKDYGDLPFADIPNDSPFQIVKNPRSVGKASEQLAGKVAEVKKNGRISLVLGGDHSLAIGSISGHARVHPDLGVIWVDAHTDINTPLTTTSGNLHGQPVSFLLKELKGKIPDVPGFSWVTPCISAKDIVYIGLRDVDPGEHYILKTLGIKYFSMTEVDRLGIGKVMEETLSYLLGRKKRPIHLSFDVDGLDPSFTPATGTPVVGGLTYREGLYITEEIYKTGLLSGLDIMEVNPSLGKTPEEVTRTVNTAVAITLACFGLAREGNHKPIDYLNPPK
The experiment in a line: Human Arginase 1 enzyme inhibition (thioarginine/DTNB absorbance at 412 nm). Format: biochemical. The settings on record: recombinant enzyme 5 nM, 60 min, room temperature. The source says:
(§1) The inhibitory effects of Examples 1-26 on the activity of Human Arginase 1 and Arginase 2 activity were quantified by measuring the formation of the thiol group from thioarginine using recombinant Arginase 1 or Arginase 2 produced from E. coli. The thiol group was detected with Ellman's reagent, 5,5′-dithiobis(2-nitrobenzoic acid) (DTNB). DTNB reacts with the thiol to give the mixed disulfide and 2-nitro-5-thiobenzoic acid (TNB) which is quantified by the absorbance of the anion (TNB^2−) at 412 nm.
(§2) The assays were run in clear 384 well plates (Greiner cat no: 781101). Various concentrations of Examples 1-26 in 300 nL DMSO were dispensed to assay plates using an Echo acoustic dispenser immediately followed by plate sealing and centrifugation. Two pre-mixes were prepared from reagents thawed immediately before addition to assay plates. Pre-mix one comprised human Arginase 1 or human Arginase 2, at a final concentration of 5 nM and 0.5 mM DTNB in assay buffer, 45 mM HEPES pH7.5, brij 35, 0.045% (w/v) and 100 μM MnCl2. Pre-mix two comprised freshly thawed 0.5 mM thioarginine in assay buffer. Fifteen microlitres of pre-mix one was dispensed to assay plates containing Examples 1-9, centrifuged and incubated for 30 minutes at room temperature prior to adding fifteen microlitres of pre-mix two.
(§3) Assay plates were centrifuged prior to reading absorbance at 412 nm in a Pherastar multi-mode plate reader to collect data at time point 0 (T0). The plates were incubated at room temperature for 60 min prior to reading again to collect data at time point 1 (T1). Data is derived by subtracting the A412 signal measured at T0 (time point 0) from that measured at T1 (time point 1). The data was transformed to % effect using the equation:
(§4) Compound % effect=100*[(X−min)/(max−min)],
(§5) where X represents the normalized value for the compound based on the Min (vehicle) and Max (reference compound) inhibition control.
(§6) The concentration of Examples 1-26 that inhibited the activity by 50% (i.e.the IC50) was calculated by plotting the % effect versus test compound concentration and fitting the data using the Genedata Screener Smart fit algorithm.

Assay [2] deals with T2, Human Arginase 2 (Homo sapiens, UniProt P78540).
T2 construct: made in house; host or cells: E. coli
T2 sequence (P78540 23-354): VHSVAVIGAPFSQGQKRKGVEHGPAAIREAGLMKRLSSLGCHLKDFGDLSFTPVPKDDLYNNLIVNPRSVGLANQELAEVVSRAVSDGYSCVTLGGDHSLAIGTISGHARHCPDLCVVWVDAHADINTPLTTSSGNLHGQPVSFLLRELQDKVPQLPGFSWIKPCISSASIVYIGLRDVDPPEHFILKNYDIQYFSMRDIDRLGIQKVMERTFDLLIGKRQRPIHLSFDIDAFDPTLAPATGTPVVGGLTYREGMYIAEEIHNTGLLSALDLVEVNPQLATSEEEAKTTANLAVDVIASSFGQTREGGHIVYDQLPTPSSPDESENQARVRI
Description: Human Arginase 2 enzyme inhibition (thioarginine/DTNB absorbance at 412 nm). In kind it is biochemical. Conditions: recombinant enzyme 5 nM, 60 min, room temperature.
Excerpt: as §1, §2, §3, §4, §5, §6

A value given as a limit tells only on which side of the number the result lay.

Take `CC(C)[C@H](N)C(=O)NC[C@@H](CCCB(O)O)[C@H](N)C(=O)O` [Example 8, (2S,3R)-2-amino-3-(((S)-2-amino-3-methylbutanamido)methyl)-6-boronohexanoic acid]: the IC50 – broadly, the concentration needed to halve the response being measured – is 150 nM in assay [1] and 490 nM in assay [2].
Turning to `CNC[C@@H](CCCB(O)O)[C@H](N)C(=O)O` [Example 4, (2S,3R)-2-amino-6-borono-3-((methylamino)methyl)hexanoic acid], the IC50 in assay [1] was 870 nM; in assay [2], 770 nM.
`CC(C)(C)[C@H](N)C(=O)NC[C@H](CCCB(O)O)[C@H](N)C(=O)O` [Example 23, (2S,3S)-2-amino-3-(((S)-2-amino-3,3-dimethylbutanamido)methyl)-6-boronohexanoic acid]: the IC50 in assay [1] was 30 nM; in assay [2] it was 100 nM.
For `NCC[C@@H](CCCB(O)O)[C@H](N)C(=O)O` [Example 15, (2S,3R)-2-amino-3-(2-aminoethyl)-6-boronohexanoic acid], in that order: 220 nM and 480 nM.
For `CC(C)[C@H](N)C(=O)N[C@H](C(=O)O)[C@@H](CN)CCCB(O)O` [Example 13, (2S,3R)-2-((S)-2-Amino-3-methylbutanamido)-3-(aminomethyl)-6-boronohexanoic acid], in that order: 13200 nM and 9460 nM.
For `CN[C@H](C(=O)O)[C@@H](CN)CCCB(O)O` [Example 12, (2S,3R)-3-(aminomethyl)-6-borono-2-(methylamino)hexanoic acid], the IC50 in assay [1] was determined as 400 nM; in assay [2], 1080 nM.
On the same counts, the results for `N[C@H](C(=O)O)[C@H](CCCB(O)O)CN1CCOCC1` [Example 2, (2S,3R)-2-amino-6-borono-3-(morpholinomethyl)hexanoic acid] are 38600 nM and 85200 nM.
As to `N[C@H](C(=O)O)[C@H](CCCB(O)O)CN1CCCCC1` [Example 3, (2S,3R)-2-amino-6-borono-3-(piperidin-1-ylmethyl)hexanoic acid], the IC50 in assay [1] was 7060 nM; in assay [2], 16300 nM.
On the same counts, the results for `NC(=O)NC[C@@H](CCCB(O)O)[C@H](N)C(=O)O` [Example 7, (2S,3R)-2-amino-6-borono-3-(ureidomethyl)hexanoic acid] are 2730 nM and 5580 nM.
On the same counts, the results for `CC[C@H](N)C(=O)NC[C@@H](CCCB(O)O)[C@H](N)C(=O)O` [Example 9, (2S,3R)-2-amino-3-(((S)-2-aminobutanamido)methyl)-6-boronohexanoic acid] are 180 nM and 410 nM.
Consider `CNC(=O)[C@@H](CCCB(O)O)[C@H](N)C(=O)O` [Example 17, (2S,3S)-2-amino-6-borono-3-(methylcarbamoyl)hexanoic acid], for which the IC50 in assay [1] is 34200 nM; in assay [2] it was over 100000 nM.
As for `CC(=O)NC[C@@H](CCCB(O)O)[C@H](N)C(=O)O` [Example 11, (2S,3R)-3-(acetamidomethyl)-2-amino-6-boronohexanoic acid], the IC50 in assay [1] came to 5080 nM; in assay [2] it was 5890 nM.
For the compound `CN(C)C[C@@H](CCCB(O)O)[C@H](N)C(=O)O` [Example 5, (2S,3R)-2-amino-6-borono-3-((dimethylamino)methyl)hexanoic acid], the results for the IC50 in assay [1] and in assay [2] were 2090 nM and 4310 nM, respectively.
Turning to `NC(=O)[C@@H](CCCB(O)O)[C@H](N)C(=O)O` [Example 16, (2S,3S)-2-amino-6-borono-3-carbamoylhexanoic acid], the IC50 in assay [1] stood at 19200 nM; in assay [2] it was 54400 nM.
On the same counts, the results for `C[C@H](N)C(=O)NC[C@@H](CCCB(O)O)[C@H](N)C(=O)O` [Example 10, (2S,3R)-2-amino-3-(((S)-2-aminopropanamido)methyl)-6-boronohexanoic acid] are 160 nM and 360 nM.

Source of the values: patent US20220267356A1, “ARGINASE INHIBITORS AND METHODS OF USE THEREOF” (AstraZeneca AB, priority 2019, published 2022).
